A short description of data set [1]: Alamar blue cytotoxicity (CC50), wild-type replicon cells. In kind it is cell-based. The conditions noted are these: human, Huh-7 cells carrying the wild-type HCV 377-neo replicon; Wild-type replicon cell line. For orientation: Resazurin is reduced to fluorescent resorufin, in cell work by metabolically active cells.
For data set [2] the following is noted: human.
Data set [3] has as its system HCV replicon (HCV 1b-377-neo replicon cells). Briefly: HCV replicon cell line FRET assay. In kind it is cell-based. The note with it: Hepatitis C virus.
The subject of data set [4] is wild-type Blast/Luciferase HCV replicon. The format is cell-based. The conditions noted are these: 0.5 μM Compound 124.
The mark [5] stands for this setting: read-out: Replicon Inhibition Range EC50.
[6] abbreviates: Wild-type replicon cell line, FRET assay, read-out: EC50.
Setting [7] is: HCV replicon cell line, FRET assay, read-out: Replicon Inhibition Range EC50.

Read-outs that look alike come from different tables or passages of the source.

As for `C[C@H](NC(=O)OCc1ccccc1)C(=O)Nc1ccc(C2S/C(=N\c3cccc(F)c3)N(Cc3ccco3)C2=O)cc1` (stereo partly drawn) [Compound 1, (1S-(4-[2-(3-Fluorophenylimino)-3-furan-2-ylmethyl-4-oxo-thiazolidin-5-yl]-phenylcarbamoyl)ethyl)carbamic acid benzyl ester], the CC50 at 72 h in data set [1] and in data set [2] was above 5000 nM throughout. Further, the concentration for a half-maximal effect (EC50) in data set [3] (setting [5]) is 100 to 1000 nM; in data set [3] (setting [6]), 1500 nM.
Regarding `C[C@H](NC(=O)Cc1ccccc1)C(=O)Nc1ccc(C2S/C(=N\c3cccc(F)c3)N(Cc3ccco3)C2=O)cc1` (stereo partly drawn) [Compound 124, (N-{4-[2-(3-fluorophenylimino)-3-furan-2-ylmethyl-4-oxo-thiazolidin-5-yl]phenyl}-2S-(phenylacetylamino))propionamide], the CC50 at 72 h in data set [1] and in data set [2] was above 5000 nM throughout. Moreover, the EC50 is below 100 nM in data set [3] (setting [5]) and 103 nM in data set [3] (setting [6]). Further, in data set [4], the “replication of the replicon in the presence of compound” value is “completely inhibited”.
`N#Cc1cccc(/N=C2\SC(c3ccc(NC(=O)[C@@H]4CCCN4C(=O)OCc4ccccc4)cc3)C(=O)N2Cc2ccco2)c1` (stereo partly drawn) [Compound 47]: the EC50 in data set [3] (setting [7]) was below 100 nM.
In the case of `O=C(Nc1ccc(C2S/C(=N\c3ccc(N4CCOCC4)cc3)N(Cc3ccncc3)C2=O)cc1)[C@@H]1CCCN1C(=O)OCc1ccccc1` (stereo partly drawn) [Compound 83], in data set [3] (setting [7]), the EC50 is below 100 nM.
With `C[C@H](NC(=O)OCc1ccccc1)C(=O)Nc1ccc(C2S/C(=N\c3ccc4c(c3)CCC4)N(Cc3ccco3)C2=O)cc1` (stereo partly drawn) [Compound 39], the EC50 in data set [3] (setting [7]) fell in the range of 1000 to 5000 nM.
`Cc1cc(F)ccc1/N=C1\SC(c2ccc(NC(=O)[C@@H]3CCCN3C(=O)OCc3ccccc3)cc2)C(=O)N1Cc1ccco1` (stereo partly drawn) [Compound 57]: the EC50 in data set [3] (setting [7]) fell in the range of 1000 to 5000 nM.
For `COc1ccc(/N=C2\SC(c3ccc(NC(=O)[C@H](C)NC(=O)OCc4ccccc4)cc3)C(=O)N2Cc2ccco2)cc1F` (stereo partly drawn) [Compound 66], the EC50 in data set [3] (setting [7]) is 100 to 1000 nM.
Still for that read-out and setting: to `O=C(C(=O)N1CCC[C@H]1C(=O)Nc1ccc(C2S/C(=N\c3ccc(N4CCOCC4)cc3)N(Cc3ccccn3)C2=O)cc1)c1ccccc1` (stereo partly drawn) [Compound 119] belongs below 100 nM; to `C[C@H](NC(=O)OCc1ccccc1)C(=O)Nc1cccc(C2S/C(=N\c3cccc(F)c3)N(Cc3ccco3)C2=O)c1` (stereo partly drawn) [Compound 32], 1000 to 5000 nM; to `C[C@H](NC(=O)C(c1ccccc1)c1ccccc1)C(=O)Nc1ccc(C2S/C(=N\c3ccc(N4CCOCC4)cc3)N(Cc3ccccn3)C2=O)cc1` (stereo partly drawn) [Compound 112], below 100 nM.
Still for that read-out and setting: to `C[C@H](NC(=O)OCc1ccccc1)C(=O)Nc1ccc(C2S/C(=N\c3ccc(N4CCOCC4)cc3)N(Cc3cccnc3)C2=O)cc1` (stereo partly drawn) [Compound 80] belongs 100 to 1000 nM; to `C[C@H](C(=O)N1CCC[C@H]1C(=O)Nc1ccc(C2S/C(=N\c3ccc(N4CCOCC4)cc3)N(Cc3ccccn3)C2=O)cc1)c1ccccc1` (stereo partly drawn) [Compound 114], below 100 nM; to `O=C(Nc1ccc(C2S/C(=N\c3ccc(N4CCOCC4)cc3)N(Cc3ccccn3)C2=O)cc1)[C@@H]1CCCN1C(=O)Cc1ccccc1Cl` (stereo partly drawn) [Compound 108], below 100 nM.
On to `O=C(Nc1ccc(C2S/C(=N\c3ccc(N4CCOCC4)cc3)N(Cc3ccco3)C2=O)cc1)[C@@H]1CCCN1C(=O)OCc1ccccc1` (stereo partly drawn) [Compound 7], for which the EC50 in data set [3] (setting [7]) was below 100 nM.

As usually defined, the EC50 is the concentration at which the effect is half-maximal.

The values are drawn from patent US20050069522A1, “Combination pharmaceutical agents as inhibitors of HCV replication” (priority 2002, published 2005).
